Source: publication PMC4906375, “Contribution of Amphipathicity and Hydrophobicity to the Antimicrobial Activity and Cytotoxicity of β-Hairpin Peptides” (ACS Infectious Diseases, 2016)
In brackets after ≈: the same amount, converted by molar mass.

Assays:
[1] = test system: C. albicans ATCC 90028; experiment: microbe, parasite or virus in culture; type: cell-based, Candida albicans; details: Candida albicans, ATCC90028; C. albicans ATCC 90028; n = 4; read-out: MIC
Procedure: (§1) Both antibacterial and antifungal MIC assays were performed by a broth microdilution plate based method as per CLSI guidelines for antimicrobial susceptibility testing.[53],[54] […] Full assay details are included in the Supporting Information with a full list of strains tested in Table S1.
(§2) Antibacterial assay (Minimum Inhibitory Concentration [MIC]).
(§3) MIC assay was performed by a broth microdilution plate based method as per CLSI guidelines for antimicrobial susceptibility testing of aerobic bacteria.1 Compounds were prepared at 1.28 mg/mL solution in water. The tested strains, Table S1, were cultured in Luria broth (LB) (In Vitro Technologies, USB75852), at 37 °C overnight. A sample of culture was then diluted 40Pfold in fresh Muller Hinton broth (MHB) (Bacto laboratories, 211443) and incubated at 37 °C for 1.5P2 h. The compounds were serially diluted twoPfold across the wells, with compound concentrations ranging from 0.015 µg/mL to 512 µg/mL, plated in duplicate. The resultant midPlog phase cultures were diluted to the final concentration of 1×10^6 CFU/mL, then 50 µL was added to each well of the compoundP containing 96Pwell plates (Corning 3641, NonPbinding Surface [NBS]), giving a final compound concentration range of 0.008 µg/mL to 256 µg/mL and 5x10^5 CFU/mL. All the plates were covered and incubated at 37 °C for 18 h. MICs were determined visually, being defined as the lowest concentration showing no visible growth. Resazurin was added at 0.001% final concentration to each well and incubated for 2 h before MICs were rePread for confirmation using the colour change from blue to pink to indicate wells containing viable cells. The resazurin assay was added in some wells where some form of precipitate was present in otherwise clear wells, making it difficult to ascertain which wells had visible […]
(§4) Antifungal assay (Minimum Inhibitory Concentration [MIC]). MIC assay was performed by a broth microdilution plate based method as per CLSI guidelines for antimicrobial susceptibility testing.2 Fungi strains, Table S1, were cultured for 3 days on Yeast ExtractPPeptone Dextrose (YPD) (SigmaPAldrich, Y1500) agar at 30 °C. A yeast suspension of 1x10^6 to 5x10^6 CFU/mL was prepared from five colonies. These stock suspensions were diluted with Yeast Nitrogen Base (YNB) (Becton Dickinson, 233520) broth to a final concentration of 2.5 ×10^3 CFU/mL. All samples, compounds and standards were plated in 96Pwell plates (Corning 3641, NonPbinding Surface [NBS]), by adding 10 µL of 1.28 mg/mL stock solution to each well and 90 µL of media. Then, the samples were serial diluted (1:2) in 12 concentrations across the plate. The standard antifungal ranged from 256 […]
(§5) µg/mL to 0.12 µg/mL and compounds from 128 µg/mL to 0.06 µg/mL with final volumes of 50 µL per well, plated in duplicate. Then, 50 µL of the fungi suspension that was previously prepared in YNB broth to the final concentration of 2.5×10^3 CFU/mL, was added to each well of the compoundPcontaining plates, giving a final standard compound concentration range of 128 µg/mL to 0.06 µg/mL and tested compound from 64 µg/mL to 0.03 µg/mL. Plates were covered and incubated at 35 °C for 24 h. Candida albicans MICs were determined by measuring the absorbance at OD530. For Cryptococcus neoformans 10 µL of 0.06 % resazurin were added to the 24 h incubated plates. Then, these plates were incubated for another 3 h.
(§6) Cryptococcus neoformans MICs were determined by measuring the absorbance at OD570P600. […]

[2] = test system: C. neoformans ATCC 208821; experiment: microbe, parasite or virus in culture; type: cell-based, Cryptococcus neoformans; details: Cryptococcus neoformans, ATCC208821; C. neoformans ATCC 208821; n = 4; read-out: MIC
Procedure: as §1, §2, §3, §4, §5, §6

[3] = test system: B. subtilis ATCC 6051; experiment: microbe, parasite or virus in culture; type: cell-based, Bacillus subtilis; details: Bacillus subtilis, ATCC6051
Procedure: as §1, §2, §3
(§7) Antifungal assay (Minimum Inhibitory Concentration [MIC]). MIC assay was performed by a broth microdilution plate based method as per CLSI guidelines for antimicrobial susceptibility testing.2 Fungi strains, Table S1, were cultured for 3 days on Yeast ExtractPPeptone Dextrose (YPD) (SigmaPAldrich, Y1500) agar at 30 °C. A yeast suspension of 1x10^6 to 5x10^6 CFU/mL was prepared from five colonies. These stock suspensions were diluted with Yeast Nitrogen Base (YNB) (Becton Dickinson, 233520) broth to a final concentration of 2.5 ×10^3 CFU/mL. All samples, compounds and standards were plated in 96Pwell plates (Corning 3641, NonPbinding Surface [NBS]), by adding 10 µL of 1.28 mg/mL stock solution to each well and 90 µL of media. Then, the samples were serial diluted (1:2) in 12 concentrations across the plate. The standard antifungal ranged from 256

[4] = test system: S. aureus ATCC 43300 (MRSA); experiment: microbe, parasite or virus in culture; type: cell-based, Staphylococcus aureus; details: Staphylococcus aureus
Procedure: as §1, §2, §3, §7

[5] = test system: E. coli ATCC 25922 (control strain); type: cell-based, Escherichia coli; details: E. coli ATCC 25922 (control strain); n = 4
Procedure: as §1, §2, §3, §7

[6] = test system: E. coli ATCC 700926 (K12); type: cell-based, Escherichia coli; details: E. coli ATCC 700926 (K12); n = 4
Procedure: as §1, §2, §3, §7

[7] = test system: E. coli MB 4902 (ΔlpxC); type: cell-based, Escherichia coli; details: n = 4
Procedure: as §1, §2, §3, §7

[8] = test system: K. pneumoniae ATCC 13883; type: cell-based, Klebsiella pneumoniae; details: K. pneumoniae ATCC 13883; n = 4
Procedure: as §1, §2, §3, §7

[9] = test system: K. pneumoniae ATCC 700603 (MDR); type: cell-based, Klebsiella pneumoniae; details: n = 4
Procedure: as §1, §2, §3, §7

[10] = test system: K. pneumoniae BAA 2146 (NDM-1 pos); type: cell-based, Klebsiella pneumoniae; details: n = 4
Procedure: as §1, §2, §3, §7

[11] = test system: A. baumannii ATCC 19606; type: cell-based, Acinetobacter baumannii; details: A. baumannii ATCC 19606; n = 4
Procedure: as §1, §2, §3, §7

[12] = test system: P. aeruginosa ATCC 27853; type: cell-based, Pseudomonas aeruginosa; details: P. aeruginosa ATCC 27853; n = 4
Procedure: as §1, §2, §3, §7

Q: Which MIC [1] does the source give for C[C@@H]1[C@H](O)[C@@H](C)/C=C/C=C/C=C/C=C/C=C/C=C/C=C/[C@H](O[C@@H]2O[C@H](C)[C@@H](O)[C@H](N)[C@@H]2O)C[C@@H]2O[C@](O)(C[C@@H](O)C[C@@H](O)[C@H](O)CC[C@@H](O)C[C@@H](O)CC(=O)O[C@H]1C)C[C@H](O)[C@H]2C(=O)O [amphotericin B, reference compound] here?
A: 0.06 µg/mL (≈ 0.0649 µM)

Q: And the MIC [2]?
A: 0.015 µg/mL (≈ 0.0162 µM)

Q: CN[C@H](CC(C)C)C(=O)N[C@H]1C(=O)N[C@@H](CC(N)=O)C(=O)N[C@H]2C(=O)N[C@H]3C(=O)N[C@H](C(=O)N[C@H](C(=O)O)c4cc(O)cc(O)c4-c4cc3ccc4O)[C@H](O)c3ccc(c(Cl)c3)Oc3cc2cc(c3O[C@@H]2O[C@H](CO)[C@@H](O)[C@H](O)[C@H]2O[C@H]2C[C@](C)(N)[C@H](O)[C@H](C)O2)Oc2ccc(cc2Cl)[C@H]1O [vancomycin, reference compound] was tested. Which MIC [3] did it give?
A: 0.25 µg/mL (≈ 0.173 µM)

Q: And the MIC [4]?
A: 1 µg/mL (≈ 0.69 µM)

Q: Which results are given for colistin [reference compound]?
A: MIC [5]: 0.03 µg/mL; MIC [6]: 0.03 µg/mL; MIC [7]: 0.009 µg/mL; MIC [8]: 0.5 µg/mL; MIC [9]: 0.125 µg/mL; MIC [10]: 0.03 µg/mL; MIC [11]: 0.03 µg/mL; MIC [12]: 0.25 µg/mL
